Results as given in patent publication US5955508A, “Method for the enhancement of lymphocyte activity against opportunistic microbial pathogens” (priority 1996, dated 1999).
Read-outs that look alike come from different tables or passages of the source.

Key:
IL-2 in CD8+ T cells = assay: IL-2 production by CD8+ T cells, flow cytometry; assay type: cell-based, human; settings: for % Positive Cells (IL-2 immunopositive), d-FEN / IL-2 Titer, d-FEN: Mean ± SEM
Source text: (§1) The T lymphocytes analyzed were obtained from 20 HIV+ patients (9 females and 11 males, 25-48 years of age). The patients were diagnosed as being HIV+ within the past 0.5-9 years, and 15 are being treated with antiviral drugs. The subjects' study identification number (indicates the order in which bloods were drawn), CD4+ and CD8+ counts (determined March, 1996, as part of the present study), age, sex, date of diagnosis, and pharmacotherapy are provided in Table 1.
(§2) The experimental protocol for this project is illustrated in Table A. Note that the cultures were exposed to two doses (5 and 50 ng/ml) of d-FEN in the mitogenesis assays, whereas only one dose (50 ng/ml) was used in the antifungal and cytokine release assays.
(§3) Cytokine Profiles. Peripheral mononuclear cells were isolated by the Ficoll-Hypaque method and washed twice with RPMI-1640 medium. Cell suspensions were made at 1×10^6 /ml and the cells activated with interleukin-2 (IL-2) for 18 h or 4 days at 37° C. under 5% CO^2 +95% air. Monensin (1 nM) then was added to the culture to block secretion of cytokines, and the cultures allowed to continue for another 3 h. The cells were washed twice with PBS+1% fetal calf serum (FCS) with 0.1% saponin+0.1% sodium azide, then washed once with PBS-1% FCS and stained with anti-cytokine MAb-FL conjugate for 30 min. Following two washes, the cells were analyzed by flow cytometry for production of IL-2, IFN-γ and TNF-α. The MAbs-FL conjugates were obtained from Pharmingen (San Diego, Calif.). Potential effects of on cytokine production were evaluated (a) as increases in the percentage of a T cell subset which produce the respective cytokine; and, (b) as increases in the amount of cytokine produced by each subset. The latter were analyzed as a shift of the cytokine histograms.
(§4) The data were analyzed by a one- or two-way analysis of variance (ANOVA) with repeated measures where appropriate ([…] version 1; Jandel, San Rafael, Calif.). Significant main effects were subjected to post hoc analysis using the Student-Newman Keuls All Pairwise Multiple Comparisons test or the Mann-Whitney U test.

INF-γ in CD8+ T cells = assay: INF-γ production by CD8+ T cells, flow cytometry; assay type: cell-based, human; settings: 50 ng/ml, Mean ± SEM
Source text: as §1, §2, §3, §4

[1] = cited from earlier work
TNF-α in CD8+ T cells = assay: TNF-α production by CD8+ T cells, flow cytometry; assay type: cell-based, human; settings: 50 ng/ml; for % Positive Cells (TNF-α immunopositive), d-FEN / TNF-α Titer, d-FEN: Mean ± SEM
Source text: as §1, §2, §3, §4

[2] = whether by intravenous or oral administration; cited from earlier work
[3] = system: INF-γ in CD4+ (CD8-) T cells; assay: INF-γ production by CD4+ (CD8-) T cells, flow cytometry; assay type: cell-based, human; settings: for % Positive Cells (INF-γ immunopositive), d-FEN / INF-γ Titer, d-FEN: CD4+ (CD8-) T cells, Mean ± SEM; for activation at 0.05 µg/mL: Homo sapiens, T-cell
Source text: as §1, §2, §3, §4

[4] = system: TNF-α in CD4+ (CD8-) T cells; assay: TNF-α production by CD4+ (CD8-) T cells, flow cytometry; assay type: cell-based, human; settings: for % Positive Cells (TNF-α immunopositive), d-FEN / TNF-α Titer, d-FEN: CD4+ (CD8-) T cells, Mean ± SEM; for inhibition at 0.05 µg/mL: Homo sapiens, T-cell
Source text: as §1, §2, §3, §4

[5] = 50 ng/ml, CD8+ T cells, non-AIDS HIV+

CCN[C@@H](C)Cc1cccc(C(F)(F)F)c1 [d-FEN]
% Positive Cells (IL-2 immunopositive), d-FEN (IL-2 in CD8+ T cells; 50 ng/ml, CD8+ T cells, AIDS): 18 ± 4% | IL-2 Titer, d-FEN (IL-2 in CD8+ T cells; 50 ng/ml, CD8+ T cells, AIDS): 147 ± 34 geometric mean channel fluorescence | effect on IL-2 titer in words (IL-2 in CD8+ T cells; 50 ng/ml, CD8+ T cells, non-AIDS): not from the non-AIDS patients | % Positive Cells (IL-2 immunopositive), d-FEN (IL-2 in CD8+ T cells; [5]): 36 ± 3% | IL-2 Titer, d-FEN (IL-2 in CD8+ T cells; [5]): 220 ± 28 geometric mean channel fluorescence | activation at 0.05 µg/mL (IL-2 in CD8+ T cells; Homo sapiens, T-cell, read-out: percent increase of IL-2 titer over VEH): 40% | % Positive Cells (INF-γ immunopositive), d-FEN (INF-γ in CD8+ T cells; AIDS): 40 ± 5% | INF-γ Titer, d-FEN (INF-γ in CD8+ T cells; AIDS): 764 ± 86 geometric mean channel fluorescence | % Positive Cells (INF-γ immunopositive), d-FEN (INF-γ in CD8+ T cells; non-AIDS HIV+): 47 ± 4% | INF-γ Titer, d-FEN (INF-γ in CD8+ T cells; non-AIDS HIV+): 964 ± 71 geometric mean channel fluorescence | level in tissue and in plasma ([1]; 5 mg dextrofenfluramine per os): about 5 ng/ml | conversion to metabolite dextronorfenfluramine ([1]; upon administration, in vivo): partially converts upon administration to its metabolite dextronorfenfluramine | effect on TNF-α titer in words (TNF-α in CD8+ T cells): No significant effects on TNF-α titer were observed | % Positive Cells (TNF-α immunopositive), d-FEN (TNF-α in CD8+ T cells; AIDS): 62 ± 4% | TNF-α Titer, d-FEN (TNF-α in CD8+ T cells; AIDS): 329 ± 57 geometric mean channel fluorescence | % Positive Cells (TNF-α immunopositive), d-FEN (TNF-α in CD8+ T cells; non-AIDS HIV+): 69 ± 3% | TNF-α Titer, d-FEN (TNF-α in CD8+ T cells; non-AIDS HIV+): 392 ± 47 geometric mean channel fluorescence | activation at 0.05 µg/mL (TNF-α in CD8+ T cells; Homo sapiens, T-cell, AIDS, read-out: percent increase of TNF-α+ cells over VEH): 24% | protein binding [2]: about 36% | % Positive Cells (INF-γ immunopositive), d-FEN ([3]; 50 ng/ml, AIDS): 18 ± 2% | INF-γ Titer, d-FEN ([3]; 50 ng/ml, AIDS): 336 ± 45 geometric mean channel fluorescence | % Positive Cells (INF-γ immunopositive), d-FEN ([3]; 50 ng/ml, non-AIDS HIV+): 16 ± 2% | INF-γ Titer, d-FEN ([3]; 50 ng/ml, non-AIDS HIV+): 473 ± 37 geometric mean channel fluorescence | effect on INF-γ levels in words ([3]; 50 ng/ml, CD4+ T cells): did not have any significant effect | activation at 0.05 µg/mL ([3]; read-out: percent increase over VEH (printed under Titer, d-FEN), 50 ng/ml, CD4+ T cells, AIDS): 38% | activation at 0.05 µg/mL ([3]; read-out: percent increase over VEH (printed under Titer, d-FEN), 50 ng/ml, CD4+ T cells, non-AIDS): 33% | activation at 0.05 µg/mL ([3]; 50 ng/ml, CD4+ T cells, all patients, p=0.007, read-out: increase in the percent of INF-γ immunopositive T cells): 33 to 38% | % Positive Cells (TNF-α immunopositive), d-FEN ([4]; 50 ng/ml, AIDS): 31 ± 4% | TNF-α Titer, d-FEN ([4]; 50 ng/ml, AIDS): 156 ± 40 geometric mean channel fluorescence | % Positive Cells (TNF-α immunopositive), d-FEN ([4]; 50 ng/ml, non-AIDS HIV+): 69 ± 3% | TNF-α Titer, d-FEN ([4]; 50 ng/ml, non-AIDS HIV+): 310 ± 40 geometric mean channel fluorescence | effect on TNF-α level in words ([4]; 50 ng/ml, CD4+ T cells, AIDS): not in the AIDS CD4+ T cells | effect on number of TNF-α+ cells in words ([4]; 50 ng/ml, CD4+ T cells, AIDS): failed to affect | inhibition at 0.05 µg/mL ([4]; read-out: percent change of TNF-α titer vs VEH): 23% | inhibition at 0.05 µg/mL ([4]; read-out: reduction of the level of TNF-α): 23%
